Measured values: paper PMC11796242, “Nitidine chloride inhibits the progression of hepatocellular carcinoma by suppressing IGF2BP3 and modulates metabolic pathways in an m^6A-dependent manner” (Molecular Medicine, 2025)

Target: T1, IGF2BP3 (Homo sapiens, UniProt O00425)
T1 construct: immobilised by amine coupling on CM5 chip (PDB 6GQE used only for docking)
Test: SPR (BIAcore T200, CM5 chip, immobilised IGF2BP3, […] Langmuir global fit)
Type: binding

T1 sequence (O00425 whole entry): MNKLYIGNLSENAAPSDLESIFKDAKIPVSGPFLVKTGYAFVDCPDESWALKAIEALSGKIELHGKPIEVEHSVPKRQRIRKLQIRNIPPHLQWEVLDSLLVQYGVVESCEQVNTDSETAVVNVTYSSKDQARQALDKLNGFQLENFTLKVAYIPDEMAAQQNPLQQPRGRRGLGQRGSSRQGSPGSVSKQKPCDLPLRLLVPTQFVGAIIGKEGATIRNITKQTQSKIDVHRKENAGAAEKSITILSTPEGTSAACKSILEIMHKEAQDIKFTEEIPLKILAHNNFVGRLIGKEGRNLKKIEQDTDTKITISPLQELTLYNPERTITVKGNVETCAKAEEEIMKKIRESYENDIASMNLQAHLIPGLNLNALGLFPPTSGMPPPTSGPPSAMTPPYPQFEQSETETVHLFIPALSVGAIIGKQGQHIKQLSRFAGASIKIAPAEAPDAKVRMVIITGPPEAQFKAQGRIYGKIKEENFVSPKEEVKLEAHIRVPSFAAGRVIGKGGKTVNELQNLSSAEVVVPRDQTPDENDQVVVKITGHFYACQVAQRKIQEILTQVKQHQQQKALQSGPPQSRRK

Kd: 6.37 µM
Structure (SMILES): COc1cc2c[n+](C)c3c4cc5c(cc4ccc3c2cc1OC)OCO5 [nitidine chloride]
